The values below are quoted from earlier work in patent US20090004170A1, “COMPOSITION COMPRISING COENZYME Q10” (Kaneka Corporation, priority 2007, published 2009).

Molecules are shown by their SMILES.

Assay in data set [1]: not given
The source holds these as a separate data set.

Regarding `COC1=C(OC)C(=O)C(C/C=C(\C)CC/C=C(\C)CC/C=C(\C)CC/C=C(\C)CC/C=C(\C)CC/C=C(\C)CC/C=C(\C)CC/C=C(\C)CC/C=C(\C)CCC=C(C)C)=C(C)C1=O` [coenzyme Q10], the solubility in water entry is listed as “sparingly soluble”. Besides, the “absorbability by oral ingestion” value in data set [1] is recorded as “extremely low”.
